Where only a bound is given, the exact number is not on record here.

Experiment [1] deals with Tyrosine-protein kinase JAK1 (Homo sapiens, UniProt P23458). Put plainly: In Vitro Activity Assay: JAK1 (h) was incubated with 20 mM Tris/HCl pH 7.5, 0.2 mM EDTA, 500 μM […], 10 mM magnesium acetate and [γ-33P]-ATP (activity and concentration were formulated as needed). Mg/ATP mixture was added to initiate the reaction. After incubating at room temperature for 40 minutes, the reaction mixture was added with 0.5% phosphoric acid to stop the reaction. Then 10 μL reaction solution was spotted on a P30 filter pad and washed with 0.425% phosphoric acid three times and methanol once over 4 minutes, dried, and counted scintillation.
Sequence of Tyrosine-protein kinase JAK1 (P23458 whole entry): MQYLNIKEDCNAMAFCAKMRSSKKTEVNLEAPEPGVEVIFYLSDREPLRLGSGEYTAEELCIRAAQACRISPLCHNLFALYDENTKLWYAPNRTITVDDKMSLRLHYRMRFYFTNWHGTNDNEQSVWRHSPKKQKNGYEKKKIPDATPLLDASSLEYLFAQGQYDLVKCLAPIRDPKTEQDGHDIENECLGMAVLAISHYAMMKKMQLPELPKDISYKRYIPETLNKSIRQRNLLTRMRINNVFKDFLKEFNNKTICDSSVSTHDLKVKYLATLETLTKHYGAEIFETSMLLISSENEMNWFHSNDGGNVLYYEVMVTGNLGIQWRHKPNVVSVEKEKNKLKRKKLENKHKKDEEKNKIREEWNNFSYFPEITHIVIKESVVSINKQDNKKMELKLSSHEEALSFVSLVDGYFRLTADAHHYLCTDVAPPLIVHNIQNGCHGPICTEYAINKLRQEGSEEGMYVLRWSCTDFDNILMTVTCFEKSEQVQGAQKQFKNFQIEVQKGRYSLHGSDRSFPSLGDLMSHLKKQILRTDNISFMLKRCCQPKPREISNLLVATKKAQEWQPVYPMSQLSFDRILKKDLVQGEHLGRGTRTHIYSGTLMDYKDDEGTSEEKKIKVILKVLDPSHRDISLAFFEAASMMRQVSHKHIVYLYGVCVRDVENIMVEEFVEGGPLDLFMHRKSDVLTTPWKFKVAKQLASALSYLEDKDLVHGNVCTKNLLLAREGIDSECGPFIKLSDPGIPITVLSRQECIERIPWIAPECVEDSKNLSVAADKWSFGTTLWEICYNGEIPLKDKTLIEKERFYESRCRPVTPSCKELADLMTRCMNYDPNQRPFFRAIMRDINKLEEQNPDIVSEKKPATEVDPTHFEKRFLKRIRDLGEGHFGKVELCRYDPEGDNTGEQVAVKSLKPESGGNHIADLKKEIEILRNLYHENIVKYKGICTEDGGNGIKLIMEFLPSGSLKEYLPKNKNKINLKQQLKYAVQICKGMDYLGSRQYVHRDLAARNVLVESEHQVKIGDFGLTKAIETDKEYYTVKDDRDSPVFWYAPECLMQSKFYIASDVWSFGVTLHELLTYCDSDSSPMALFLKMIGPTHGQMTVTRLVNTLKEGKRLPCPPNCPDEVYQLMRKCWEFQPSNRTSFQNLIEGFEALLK

Experiment [2] concerns the target T1, Tyrosine-protein kinase JAK3 (Homo sapiens, UniProt P52333).
T1 sequence (P52333 whole entry): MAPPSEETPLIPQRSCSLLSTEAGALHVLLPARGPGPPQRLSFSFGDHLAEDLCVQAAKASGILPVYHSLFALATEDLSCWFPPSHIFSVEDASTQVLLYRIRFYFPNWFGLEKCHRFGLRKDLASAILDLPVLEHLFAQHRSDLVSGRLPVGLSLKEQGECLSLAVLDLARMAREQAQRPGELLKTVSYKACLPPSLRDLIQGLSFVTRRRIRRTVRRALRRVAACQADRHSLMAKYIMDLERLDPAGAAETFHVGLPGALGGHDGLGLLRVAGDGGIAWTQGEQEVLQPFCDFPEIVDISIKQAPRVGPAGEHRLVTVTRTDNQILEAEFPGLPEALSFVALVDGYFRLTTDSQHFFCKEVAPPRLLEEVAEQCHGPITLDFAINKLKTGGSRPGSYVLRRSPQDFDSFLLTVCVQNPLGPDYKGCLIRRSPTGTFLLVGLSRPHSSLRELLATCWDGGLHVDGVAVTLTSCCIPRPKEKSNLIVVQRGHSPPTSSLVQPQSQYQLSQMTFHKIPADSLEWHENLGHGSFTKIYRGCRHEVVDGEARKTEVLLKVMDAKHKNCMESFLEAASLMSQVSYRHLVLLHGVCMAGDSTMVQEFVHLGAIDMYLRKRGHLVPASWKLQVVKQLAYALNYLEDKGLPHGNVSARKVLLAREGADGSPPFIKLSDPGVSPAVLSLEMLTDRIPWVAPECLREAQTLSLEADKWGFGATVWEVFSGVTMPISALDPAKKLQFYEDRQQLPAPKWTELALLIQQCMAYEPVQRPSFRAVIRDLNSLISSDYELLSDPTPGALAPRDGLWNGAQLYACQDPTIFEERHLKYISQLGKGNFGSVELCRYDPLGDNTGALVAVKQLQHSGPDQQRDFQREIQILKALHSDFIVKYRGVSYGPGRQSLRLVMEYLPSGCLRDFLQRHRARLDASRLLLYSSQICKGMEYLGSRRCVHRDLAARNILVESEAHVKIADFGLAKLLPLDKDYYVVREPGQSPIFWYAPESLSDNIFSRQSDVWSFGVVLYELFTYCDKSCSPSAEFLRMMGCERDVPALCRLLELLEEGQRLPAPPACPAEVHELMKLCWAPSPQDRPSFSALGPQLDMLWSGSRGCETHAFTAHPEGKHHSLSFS
Put plainly: In Vitro Activity Assay: JAK3 (h) was incubated with 8 mM MOPS pH 7.0, 0.2 mM EDTA, 500 μM […], 10 mM magnesium acetate and [γ-33P]-ATP (activity and concentration were formulated as needed). Mg/ATP mixture was added to initiate the reaction. After incubating at room temperature for 40 minutes, the reaction mixture was added with 0.5% phosphoric acid to stop the reaction. Then 10 μL the reaction solution was spotted on a P30 filter pad and washed with 0.425% phosphoric acid three times and methanol once over 4 minutes, dried, and counted scintillation.

The target in experiment [3] is Tyrosine-protein kinase JAK2 (Homo sapiens, UniProt O60674). Put plainly: In Vitro Activity Assay: JAK2 (h) and 8 mM MOPS pH 7.0, 0.2 mM EDTA, 100M KTFCGTPEYLAPEVRREPRILSEEEQEMFRDFDYIADWC, 10 mM magnesium acetate and [γ-33P]-ATP (activity and concentration were formulated as needed) were incubated together. Mg/ATP mixture was added to initiate the reaction. After incubating at room temperature for 40 minutes, the reaction mixture was added with 0.5% phosphoric acid to ….
Sequence of Tyrosine-protein kinase JAK2 (O60674 whole entry): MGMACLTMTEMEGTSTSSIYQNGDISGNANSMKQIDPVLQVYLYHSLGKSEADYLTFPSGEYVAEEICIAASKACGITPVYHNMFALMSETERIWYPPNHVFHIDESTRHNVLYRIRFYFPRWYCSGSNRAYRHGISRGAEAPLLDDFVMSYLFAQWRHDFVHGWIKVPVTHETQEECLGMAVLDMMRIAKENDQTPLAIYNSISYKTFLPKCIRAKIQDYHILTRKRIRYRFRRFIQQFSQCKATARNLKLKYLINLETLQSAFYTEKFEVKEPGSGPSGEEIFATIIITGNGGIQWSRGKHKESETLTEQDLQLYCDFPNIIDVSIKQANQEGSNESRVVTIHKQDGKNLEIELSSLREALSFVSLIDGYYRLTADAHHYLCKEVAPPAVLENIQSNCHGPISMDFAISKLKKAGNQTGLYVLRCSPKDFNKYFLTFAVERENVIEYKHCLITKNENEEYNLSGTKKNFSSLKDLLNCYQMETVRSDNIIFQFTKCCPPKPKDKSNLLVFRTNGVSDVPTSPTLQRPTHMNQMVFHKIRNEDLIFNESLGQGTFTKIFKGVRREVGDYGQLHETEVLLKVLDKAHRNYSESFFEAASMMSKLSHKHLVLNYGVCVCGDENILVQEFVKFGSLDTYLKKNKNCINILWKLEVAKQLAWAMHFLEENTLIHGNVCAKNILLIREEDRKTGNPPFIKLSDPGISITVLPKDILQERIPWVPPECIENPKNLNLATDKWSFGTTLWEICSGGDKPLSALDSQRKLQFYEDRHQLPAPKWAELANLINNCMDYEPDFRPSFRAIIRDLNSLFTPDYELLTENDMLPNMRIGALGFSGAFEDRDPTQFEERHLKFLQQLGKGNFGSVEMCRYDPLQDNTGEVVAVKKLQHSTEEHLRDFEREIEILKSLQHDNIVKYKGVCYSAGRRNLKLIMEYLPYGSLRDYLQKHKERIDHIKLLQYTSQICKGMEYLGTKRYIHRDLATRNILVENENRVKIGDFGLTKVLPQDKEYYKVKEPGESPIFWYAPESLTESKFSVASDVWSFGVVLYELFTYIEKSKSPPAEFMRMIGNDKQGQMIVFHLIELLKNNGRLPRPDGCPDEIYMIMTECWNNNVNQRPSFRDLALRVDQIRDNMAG

For experiment [4], the target named is Non-receptor tyrosine-protein kinase TYK2 (Homo sapiens, UniProt P29597). Put plainly: In Vitro Activity Assay: TYK2 (h) was incubated with 8 mM MOPS pH 7.0, 0.2 mM EDTA, 250 μM […], 10 mM magnesium acetate and [γ-33P]-ATP (activity and concentration were formulated as needed). Mg/ATP mixture was added to initiate the reaction. After incubating at room temperature for 40 minutes, the reaction mixture was added with 0.5% phosphoric acid to stop the reaction. Then 10 μL reaction was spotted on a P30 filter pad and washed with 0.425% phosphoric acid three times and methanol once over 4 minutes, dried, and counted scintillation.
Sequence of Non-receptor tyrosine-protein kinase TYK2 (P29597 whole entry): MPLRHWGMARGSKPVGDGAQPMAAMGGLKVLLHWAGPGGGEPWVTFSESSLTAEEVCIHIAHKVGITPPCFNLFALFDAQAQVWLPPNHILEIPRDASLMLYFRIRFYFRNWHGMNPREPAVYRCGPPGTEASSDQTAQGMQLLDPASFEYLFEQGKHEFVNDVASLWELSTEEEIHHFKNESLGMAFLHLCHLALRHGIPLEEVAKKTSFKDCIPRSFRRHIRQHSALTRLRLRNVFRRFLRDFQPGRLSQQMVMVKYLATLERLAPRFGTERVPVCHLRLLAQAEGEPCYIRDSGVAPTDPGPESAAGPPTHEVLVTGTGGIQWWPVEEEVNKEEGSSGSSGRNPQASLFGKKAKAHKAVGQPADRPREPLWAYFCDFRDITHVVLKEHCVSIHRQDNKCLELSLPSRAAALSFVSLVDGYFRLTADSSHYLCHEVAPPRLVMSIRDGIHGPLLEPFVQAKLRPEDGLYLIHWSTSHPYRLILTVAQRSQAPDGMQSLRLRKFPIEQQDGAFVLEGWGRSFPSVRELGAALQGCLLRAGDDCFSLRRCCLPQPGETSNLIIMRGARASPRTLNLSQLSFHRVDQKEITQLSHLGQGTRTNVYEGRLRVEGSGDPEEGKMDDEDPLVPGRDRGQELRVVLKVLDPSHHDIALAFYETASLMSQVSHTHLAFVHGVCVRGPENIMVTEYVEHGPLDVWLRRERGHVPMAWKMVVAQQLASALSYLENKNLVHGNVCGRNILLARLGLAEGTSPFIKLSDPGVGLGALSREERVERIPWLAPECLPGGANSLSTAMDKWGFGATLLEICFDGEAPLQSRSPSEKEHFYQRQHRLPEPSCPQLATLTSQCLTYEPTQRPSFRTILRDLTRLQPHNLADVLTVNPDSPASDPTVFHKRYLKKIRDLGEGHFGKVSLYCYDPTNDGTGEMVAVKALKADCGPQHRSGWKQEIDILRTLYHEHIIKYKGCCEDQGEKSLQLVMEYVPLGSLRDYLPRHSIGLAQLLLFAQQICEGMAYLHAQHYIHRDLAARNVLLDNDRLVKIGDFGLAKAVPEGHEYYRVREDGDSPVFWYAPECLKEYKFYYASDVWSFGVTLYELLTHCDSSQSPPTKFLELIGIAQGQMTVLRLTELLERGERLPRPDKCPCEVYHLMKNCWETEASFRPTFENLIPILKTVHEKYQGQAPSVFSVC

By IC50 is commonly meant the concentration that inhibits the measured activity by half. For the compound `N#CC1(C(=O)NC2CC=C(c3cccc4nc(NC(=O)C5CC5)nn34)CC2)CC1` (configuration not stated), the IC50 was 0.182 µM in experiment [1], more than 10 µM in experiment [2] and 1.38 µM in experiment [3].
As for `CC1(C(=O)NC2CC=C(c3cccc4nc(NC(=O)C5CC5)nn34)CC2)CC1(F)F` (configuration not stated), the IC50 in experiment [1] was 0.209 µM; in experiment [4] it was 0.729 µM; in experiment [2], more than 10 µM; in experiment [3], 1.16 µM.
